{"source": "patent US20030044797A1", "about": "“Detection of CYP2D6 polymorphisms” (priority 2000, published 2003)", "tested_on": "CYP2D6 enzyme", "assay": "debrisoquine metabolic ratio (MR) phenotyping of study participants, correlated with CYP2D6 5′ flanking region haplotypes", "type": "in vivo, human", "protocol": "The study was performed in accordance with the principles stated in the Declaration of Helsinki as reviewed in Tokyo 1975 and Venice 1983, Hong Kong 1989 and Somerset West 1996. Subjects were preferably not related to each other. Based on questioning, individuals having one of the following were excluded: a medical condition judged to influence liver function or requiring pharmacological treatment; any on-going disease; intake of any drug, except oral contraceptives, during one week prior to the study; breast-feeding or pregnancy. No physical examination was performed. For these experiments, a single oral dose of 10 mg debrisoquine (Declinax, Hoffman-LaRoche) was taken in the evening before bed-time. The bladder was emptied before drug intake. All urine was then collected overnight (about 8 hours) A single blood sample was collected 3 hours after drug intake.\nWhite blood cells isolated from a blood sample drawn from the brachial vein serve as the source of the genomic DNA for the analyses. The DNA was extracted by guanidine thiocyanate method or QlAamp Blood Kit (QIAGEN, Venlo, The Netherlands). The genes included in the study were amplified by PCR and the DNA sequences were determined by the technology most suitable for the specific fragment. […] Case Report Forms were designed and used for clinical and genetic data collection. Data was entered and stored in a relational database at Gemini Genomics AB, Uppsala. To secure consistency between the Case Report Forms and the database, data was checked either by double data entry or proofreading. After a Clean File was declared the database was protected against changes. By using the program Stat/Transfer™ the database was transferred to SAS data sets. The SAS™ system was used for tabulations and statistical evaluations. Genotypes and haplotypes were correlated against the metabolic ratio.\nThis analysis was performed using software based on maximum likelihood methodology and using the EM algorithm of Excoffier et al. (1995), Mol Biol Evol. 12:921-927. […] From the haplotype information two different kinds of variables were created: one variable was formed as a haplotype combination variable (HTYPE). This variable has the value H1/H2 when the subject has haplotypes 1 and 2, etc. Variables H1, H2, H3 and H4 are haplotype annotations that denote the number of copies of that particular haplotype for the subject, e.g., for a subject with haplotype H1/H2 the variables H1, H2, H3 and H4 will be 1, 1, 0 and 0, respectively. Each of these variables can thus take on the values 0, 1 or 2. Only the four most frequent haplotypes were considered when those variables were formed."}
{"smiles": "N=C(N)N1CCc2ccccc2C1", "note": "[debrisoquine]", "values": [{"measurement": "MR-range (min-max)", "setting": "HTYPE H1/H1", "result": "0.03-110"}, {"measurement": "MR (Debr), predicted metabolic ratio", "setting": "HTYPE H1/H1, 89% (49/55) in MR-range", "result": "<0.8"}, {"measurement": "MR-range (min-max)", "setting": "HTYPE H1/H2", "result": "0.06-1.04"}, {"measurement": "MR (Debr), predicted metabolic ratio", "setting": "HTYPE H1/H2, 81% (52/64) in MR-range", "result": "<0.4"}, {"measurement": "MR-range (min-max)", "setting": "HTYPE H1/H3", "result": "0.08-2.40"}, {"measurement": "MR (Debr), predicted metabolic ratio", "setting": "HTYPE H1/H3, 74% (14/19) in MR-range", "result": "0.4-2.0"}, {"measurement": "MR-range (min-max)", "setting": "HTYPE H1/H4", "result": "0.18-143"}, {"measurement": "MR (Debr), predicted metabolic ratio", "setting": "HTYPE H1/H4, 74% (20/27) in MR-range", "result": "0.4-7.0"}, {"measurement": "MR-range (min-max)", "setting": "HTYPE H2/H2", "result": "0.13-1.44"}, {"measurement": "MR (Debr), predicted metabolic ratio", "setting": "HTYPE H2/H2, 89% (17/19) in MR-range", "result": "<0.8"}, {"measurement": "MR-range (min-max)", "setting": "HTYPE H2/H3", "result": "0.13-2.29"}, {"measurement": "MR (Debr), predicted metabolic ratio", "setting": "HTYPE H2/H3, 86% (6/7) in MR-range", "result": "0.2-7.0"}, {"measurement": "MR-range (min-max)", "setting": "HTYPE H2/H4", "result": "0.33-3.70"}, {"measurement": "MR (Debr), predicted metabolic ratio", "setting": "HTYPE H2/H4, 82% (14/17) in MR-range", "result": "0.4-2.0"}, {"measurement": "MR-range (min-max)", "setting": "HTYPE H3/H3", "result": "0.85-5.17"}, {"measurement": "MR (Debr), predicted metabolic ratio", "setting": "HTYPE H3/H3, 100% (3/3) in MR-range", "result": "0.8-7.0"}, {"measurement": "MR-range (min-max)", "setting": "HTYPE H3/H4", "result": "1.46-6.54"}, {"measurement": "MR (Debr), predicted metabolic ratio", "setting": "HTYPE H3/H4, 100% (5/5) in MR-range", "result": "0.8-7.0"}, {"measurement": "MR-range (min-max)", "setting": "HTYPE H4/H4", "result": "26.3-236"}, {"measurement": "MR (Debr), predicted metabolic ratio", "setting": "HTYPE H4/H4, 100% (16/16) in MR-range", "result": ">12.6"}, {"measurement": "mr50 (metabolic ratio of the 50th percentile)", "setting": "haplotype H1/H1, n = 53, single oral dose 10 mg debrisoquine", "result": "mr50 = 0.22"}, {"measurement": "mr50 (metabolic ratio of the 50th percentile)", "setting": "haplotype H1/—, n = 108", "result": "mr50 = 0.375"}, {"measurement": "mr50 (metabolic ratio of the 50th percentile)", "setting": "haplotype H2/H2, n = 19", "result": "mr50 = 0.3"}, {"measurement": "mr50 (metabolic ratio of the 50th percentile)", "setting": "haplotype H2/—, n = 88", "result": "mr50 = 0.335"}, {"measurement": "mr50 (metabolic ratio of the 50th percentile)", "setting": "haplotype H3/H3, n = 3", "result": "mr50 = 2.08"}, {"measurement": "mr50 (metabolic ratio of the 50th percentile)", "setting": "haplotype H3/—, n = 31", "result": "mr50 = 0.64"}, {"measurement": "mr50 (metabolic ratio of the 50th percentile)", "setting": "haplotype H4/H4, n = 16", "result": "mr50 = 88"}, {"measurement": "mr50 (metabolic ratio of the 50th percentile)", "setting": "haplotype H4/—, n = 49", "result": "mr50 = 0.86"}, {"measurement": "mr50 (metabolic ratio of the 50th percentile)", "setting": "no H1 copy (—/—), n = 71", "result": "mr50 = 0.87"}, {"measurement": "mr50 (metabolic ratio of the 50th percentile)", "setting": "no H2 copy (—/—), n = 125", "result": "mr50 = 0.56"}, {"measurement": "mr50 (metabolic ratio of the 50th percentile)", "setting": "no H3 copy (—/—), n = 198", "result": "mr50 = 0.34"}, {"measurement": "mr50 (metabolic ratio of the 50th percentile)", "setting": "no H4 copy (—/—), n = 167", "result": "mr50 = 0.27"}]}
